Test [1] concerns human cancer and normal/non-cancerous cells. It counts as cell-based. The conditions noted are these: cancer or normal cells, except breast cancer MCF-7 cells; read-out: IC50, cancer or normal cell proliferation. Here is the method: (§1) The antiproliferative activity of the peptides was evaluated, as previously described using human cancer cell lines (A549 (lung), A2780 (ovary), HepG-2 (liver), MCF-7 (breast), MiaPaCa-2 (pancreas), MNT-1 (skin), and PC-3 (prostate)) and normal human lung fibroblasts (IMR-90) or epithelial cells (BEAS-2B). The cells were cultured in DMEM supplemented with 10% FBS, 1% L-glutamine, and 1% antibiotics at 37 °C in a 5% CO2 incubator. For the antiproliferative assay, cells were seeded in 96-well plates at approximately 3000 cells/well. Twenty-four hours later, cells were treated with increasing concentrations of peptides (1:2 serial dilution from 100 µM to 0 µM) for 48 h. After treatment, the number of viable cells was determined using a resazurin-based assay, and the fluorescence intensity was measured with a microplate reader (Ex 530 nm/Em 590 nm). The IC50 values of the peptides (i.e., the concentrations causing 50% inhibition of cell proliferation) were determined using GraphPad® Prism 7 software. The experiments were performed in triplicate (n = 3). The cytotoxicity of the peptides was also evaluated using confluent/no-dividing cells, as previously described. Briefly, human cells were seeded onto 96-well plates at 20,000 cells/well. When they reached 80–90% confluence (after 24–48 h), cells were treated with escalating concentrations of peptides. After 48h incubation, cell viability was measured using a resazurin assay and CC50 (i.e., the concentrations causing 50% inhibition of cell viability) and determined using GraphPad® Prism 7 software. The experiments were performed in triplicate (n = 3).

Test [2] has as its system Prostate Cancer (PC-3). It counts as cell-based, human. The conditions noted are these: PC-3, 48 h; read-out: 50% inhibitory concentrations (IC50), cell proliferation. An outline of the steps: (§2)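 Cells grown in DMEM with 10% FBS at 37 °C were seeded at ~3000 cells/well and after 24 h exposed to peptides in 1:2 serial dilution from 100 µM for 48 h. Viable cells were read by resazurin fluorescence (Ex 530/Em 590 nm) and IC50 fitted; n = 3.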

Test [3] has as its system Liver Cancer (HepG-2). The format is cell-based, human. The conditions noted are these: HepG-2, 48 h; read-out: 50% inhibitory concentrations (IC50), cell proliferation. An outline of the steps:
as §2

Test [4] deals with Normal Lung Fibroblast (IMR-90). It counts as cell-based, human. As to conditions: IMR-90 normal cells, 48 h; read-out: 50% inhibitory concentrations (IC50), cell proliferation. An outline of the steps:
as §2

Test [5] deals with Pancreatic Cancer (MiaPaCa-2). It counts as cell-based, human. The conditions noted are these: MiaPaCa-2, 48 h; read-out: 50% inhibitory concentrations (IC50), cell proliferation. An outline of the steps: as §2
Test [6] concerns Skin Cancer (MNT-1). It counts as cell-based, human. As to conditions: MNT-1, 48 h; read-out: 50% inhibitory concentrations (IC50), cell proliferation. An outline of the steps: as §2
Test [7] has as its system Normal Lung Epithelium (BEAS-2B). It counts as cell-based, human. As to conditions: BEAS-2B normal cells, 48 h; read-out: 50% inhibitory concentrations (IC50), cell proliferation. An outline of the steps: as §2
The test system of test [8] is Breast Cancer (MCF-7). It counts as cell-based, human. The conditions noted are these: MCF-7, 48 h; read-out: 50% inhibitory concentrations (IC50), cell proliferation. The procedure, abridged: as §2
For test [9], the system named is Ovarian Cancer (A2780). It counts as cell-based, human. The conditions noted are these: A2780, 48 h; read-out: 50% inhibitory concentrations (IC50), cell proliferation. An outline of the steps:
as §2

Test [10] concerns human cancer cells. The format is cell-based. As to conditions: mean of all human cancer cells tested; read-out: IC50, mean over cancer cells. Here is the method:
as §1

Where a SMILES comes first, the peptide text is derived from it. [ ]: non-standard residue; d: D form.

`CC[C@H](C)[C@H](NC(=O)CNC(=O)[C@H](CO)NC(=O)[C@H](CC(C)C)NC(=O)[C@@H](N)Cc1ccccc1)C(=O)N[C@H](C(=O)NCC(=O)N[C@@H](CCSC)C(=O)N[C@@H](CC(C)C)C(=O)NCC(=O)N[C@@H](CCCCN)C(=O)N[C@@H](CC(C)C)C(=O)N[C@@H](Cc1ccccc1)C(N)=O)C(C)C` [Temporin-SHa (1), H-Phe^1-Leu^2-Ser^3-Gly^4-IIe^5-Val^6-Gly^7-Met^8-Leu^9-Gly^10-Lys^11-Leu^12-Phe^13-NH2, reference compound] (H-FLSGIVGMLGKLF-NH2): the IC50 in [1], in [2], in test [3], in test [4], in test [5] and in test [6] was greater than 100 µM each time. Besides, the IC50 in [7] was greater than 100 µM; in test [8] it was 26.9 ± 8.2 µM; in [9], greater than 100 µM.
With `CC[C@H](C)[C@H](NC(=O)CNC(=O)[C@H](CO)NC(=O)[C@H](CC(C)C)NC(=O)[C@@H](N)Cc1ccccc1)C(=O)N[C@H](C(=O)NCC(=O)N[C@@H](CCSC)C(=O)N[C@@H](CC(C)C)C(=O)N[C@H](C)C(=O)N[C@@H](CCCCN)C(=O)N[C@@H](CC(C)C)C(=O)N[C@@H](Cc1ccccc1)C(N)=O)C(C)C` [[G10a]-SHa (2), H-Phe^1-Leu^2-Ser^3-Gly^4-IIe^5-Val^6-Gly^7-Met^8-Leu^9-D-Ala^10-Lys^11-Leu^12-Phe^13-NH2] (H-FLSGIVGML[dA]KLF-NH2), the IC50 in [10] came out at 18.7 ± 9 µM; in test [2], 13.1 ± 2.4 µM; in [3], 37.2 ± 5 µM; in test [4] it was 33 ± 3.1 µM; in test [5], 23.1 ± 4.3 µM; in test [6], 14 ± 0.8 µM. In addition, the IC50 is 22.6 ± 0.7 µM in test [7], 18.3 ± 8 µM in test [8] and 13.4 ± 0.7 µM in test [9].

The values above are taken from paper PMC11350846, “Synthesis of Second-Generation Analogs of Temporin-SHa Peptide Having Broad-Spectrum Antibacterial and Anticancer Effects” (Antibiotics, 2024).
